Laboratory results reported in publication PMC4195672, “The Red Imported Fire Ant (Solenopsis invicta Buren) Kept Y not F: Predicted sNPY Endogenous Ligands Deorphanize the Short NPF (sNPF) Receptor” (PLoS ONE, 2014).
“Also recorded” adds a separate entry of the source.

Columns and labels:
[1] = tested on: S. invicta sNPF receptor (HA-tagged, stably expressed in CHO-K1 cells); experiment: Inhibition of forskolin-stimulated intracellular cAMP in SisNPFR-C6E8 cell line (cAMP EIA); format: cell-based, Solenopsis invicta; conditions: for Activity on the receptor (change of forskolin-stimulated cAMP), result in words: forskolin 10 µM, peptide at 1 µM (analogous sNP(F) tested at 10 nM and 1 µM), three biological replicates; for EC50: 50 µM Ro-20-1724, forskolin 10 µM with 0-10 µM peptide (10 concentrations), 1 h, 37°C, three independent biological replicates
Experimental: For the functional characterization of S. invicta sNPFR, stably transformed cell lines were established as described. In brief, CHO-K1 cells were obtained from the American Type Culture Collection (ATCC, Manassas, VA, USA) and grown as described in a 5% CO2 humidified incubator at 37°C. For transfection, CHO-K1 cells were seeded into T-25 tissue culture flasks and allowed to grow overnight until 50% confluent. Cells were transfected in serum-free Opti-MEM medium (Life Technologies, Gaithersburg, MD, USA) with the cationic lipid reagent Lipofectin (Life Technologies) (6 µl) and 2 µg of the expression construct according to the manufacturer’s protocol. After 6 h, the lipofectin-containing medium was removed and replaced with F12K (Sigma, St. Louis, MO, USA) medium plus 10% fetal bovine serum (EquiTech Bio, Kerrville, TX, USA) without antibiotic. After 48 h of growth, the cells were split into the same medium but with antibiotic Geneticin (Invitrogen) (800 µg/ml), and selection continued for 5 weeks followed by isolation of clonal lines. A total of 14 clonal cell lines were obtained by dilution and selection of single cells distributed in a 96-well plate (96 theoretical single cells). Presence of S. invicta sNPFR transcript was verified by screening by RT-PCR by pooling aliquots from clonal cell lines. For this, total RNA was isolated by RNeasy Mini kit (Qiagen) and used for cDNA synthesis with SuperScript III First-Strand Synthesis System followed by RT-PCR with receptor forward sNPFRf1 and reverse sNPFRr1 primers (Table S1). The cell lines from groups that generated the RT-PCR product of the expected size were further screened. Single positive clonal cell lines were subjected to functional assay using S. invicta sNPF1 and sNPF2 as ligands. Cell line C6 was further selected to obtain a line designated SisNPFR-C6E8, which was the best performing cell line and was chosen for receptor functional characterization.
To quantify changes in intracellular cAMP, 1×10^5 cells of SisNPFR-C6E8 were seeded in each well of a 6-well plate and incubated at 37°C in presence of 5% CO2 for 24 h to allow cell attachment. Cell culture medium [F12 K medium with 10% fetal bovine serum and 400 µg/ml of Geneticin] was then replaced with the same fresh medium as above and the cells were grown for additional 48 h until they reached 90–100% confluence. The cells were rinsed twice with F12 K medium only (serum and antibiotic free) and then incubated in 50 µM Ro-20-1724 phosphodiesterase inhibitor (Santa Cruz Biotechnology, Santa Cruz, CA, USA) in F12 K medium. Forskolin (10 µM) (Cayman Chemical, Ann Arbor, MI, USA) or forskolin (10 µM) with 0–10 µM solutions of ligands (10 concentrations), respectively, were added to the cells and incubated at 37°C in the presence of 5% CO2 for 1 h. Cells were rinsed once with F12 K medium, serum- and antibiotic-free, followed by lysis with 274 µl of 0.1 M HCl at RT for 20 min and centrifugation at 1000 g for 10 min. The supernatant was used for cAMP measurements using the cyclic AMP EIA Kit (Cayman Chemical) following the manufacturer’s protocol. In brief, 50 µl of supernatants and cAMP standards were loaded in a 96-well plate, and the cAMP EIA buffer was used as blank. cAMP AChE tracer (50 µl) (cAMP bound to acetylcholinesterase for competition) and 50 µl of anti-cAMP specific antiserum were added. Then the mixture was incubated at 4°C for 18 h. The mixture was removed and the plate was rinsed five times with wash buffer containing 0.05% polysorbate-20. After washing, the plate was developed at RT for 2 h using the Ellman’s reagent and the OD (412 nm) was measured in a VersaMax tunable microplate reader (Molecular Devices, Sunnyvale, CA, USA). cAMP level was calculated using Cayman provided formulas and aided by software located at http://www.myassays.com/(MyAssays Ltd., Haywards Heath, West Sussex, UK) for the output standard line graph and cAMP concentration calculations. […]

[2] = tested on: S. invicta sNPF receptor (SisNPFR-C6E8 cell line); experiment: Pilot study: stimulation of intracellular cAMP production in SisNPFR-C6E8 cell line; format: cell-based, Solenopsis invicta
Experimental: To quantify changes in intracellular cAMP, 1×10^5 cells of SisNPFR-C6E8 were seeded in each well of a 6-well plate and incubated at 37°C in presence of 5% CO2 for 24 h to allow cell attachment. Cell culture medium [F12 K medium with 10% fetal bovine serum and 400 µg/ml of Geneticin] was then replaced with the same fresh medium as above and the cells were grown for additional 48 h until they reached 90–100% confluence. The cells were rinsed twice with F12 K medium only (serum and antibiotic free) and then incubated in 50 µM Ro-20-1724 phosphodiesterase inhibitor (Santa Cruz Biotechnology, Santa Cruz, CA, USA) in F12 K medium. […] After washing, the plate was developed at RT for 2 h using the Ellman’s reagent and the OD (412 nm) was measured in a VersaMax tunable microplate reader (Molecular Devices, Sunnyvale, CA, USA). cAMP level was calculated using Cayman provided formulas and aided by software located at http://www.myassays.com/(MyAssays Ltd., Haywards Heath, West Sussex, UK) for the output standard line graph and cAMP concentration calculations. […] For this, the average absorbance readings for non-specific binding (NSB) and B0 wells were obtained, and the NSB average was deducted from the B0 average to generate the corrected B0 maximum binding value. […] The cAMP concentration of each sample was determined on the basis of the standard curve. […]

Substance | Activity on the receptor (change of forskolin-stimulated cAMP), result in words [1] | EC50 [1] | Stimulation of intracellular cAMP production (without forskolin), result in words [2] | Activity on the receptor (change of forskolin-stimulated cAMP), result in words ([1]; listed as honey bee long NPF (NPY))
SPSLRLRFa [Drome sNPF212–19] | not active1 µM | – | – | –
SLRSALAAGHLRYa [S. invicta sNPF1] | decreased cAMP | 3.28 nM | did not stimulate production of intracellular cAMP | –
SALAAGHLRYa [S. invicta sNPF2] | – | 8.6 nM | did not stimulate production of intracellular cAMP | –
SLRSALAAGHLRFa [Analogous sNP(F), Analog of S. invicta sNPF1 with C-terminal amidated Y switched to F] | eliminates the ligand activity on the receptor | – | – | –
WFGDVNQKPIRSPSLRLRFa [Drome sNPF2, Drosophila melanogaster sNPF peptide (AAN11060.1)] | not active1 µM | – | – | –
EPEPMARPTRPEIFTSPEELRRYIDHVSDYYLLSGKARYa [Apime NPY, Honey bee (A. mellifera) NPY, long NPF (NP_001161192.1), commercially synthesized] | failed to change the cAMP production; also recorded: not active1 µM | – | – | not activated
AQRSPSLRLRFa [Drome sNPF1, Drosophila melanogaster sNPF peptide (AAN11060.1)] | not active1 µM | – | – | –
